The values that follow come from ChEMBL document CHEMBL3045517, “Tolerance of tomato, pepper and potato to pre-emergence applications of saflufenacil” (Crop Prot, 2012).

What all share (type): organism-based
For series [1], the system named is Solanum tuberosum. The series can be described thus: Toxicity against Solanum tuberosum Superior (potato) assessed as dose required to cause 5% yield loss applied within 3 days after seeding measured at maturity of the crop. The following applies: in vivo, 72 h.
Series [2] deals with Capsicum annuum. The series can be described thus: Toxicity against Capsicum annuum Socrates (pepper) assessed as dose required to cause 5% yield loss applied within 3 days prior to transplantation measured at maturity of the crop. Conditions: in vivo, 72 h.
Series [3] concerns Solanum lycopersicum. The series can be described thus: Toxicity against Solanum lycopersicum (tomato) H9909 assessed as dose required to cause 5% yield loss applied within 3 days prior to transplantation measured at maturity of the crop. Conditions: in vivo, 72 h.
The subject of series [4] is Solanum tuberosum. The series can be described thus: Toxicity against Solanum tuberosum Superior (potato) assessed as decrease in marketable yield at 100 g ai/ha preemergence application measured at maturity of the crop. The arrangement: scale not given: the % may be the effect or the level left. The following applies: in vivo, other.
The test system of series [5] is Capsicum annuum. Put plainly: Toxicity against Capsicum annuum Socrates (pepper) assessed as decrease in marketable yield at 100 g ai/ha pretransplant application measured at maturity of the crop. The arrangement: scale not given: the % may be the effect or the level left. Conditions: in vivo, other.
In series [6] the test system is Solanum lycopersicum. The series can be described thus: Toxicity against Solanum lycopersicum (tomato) H9909 assessed as decrease in marketable yield at 100 g ai/ha pretransplant application measured at maturity of the crop. The arrangement: scale not given: the % may be the effect or the level left. The following applies: in vivo, other.
In series [7] the test system is Solanum tuberosum. The series can be described thus: Toxicity against Solanum tuberosum Superior (potato) assessed as dose required to cause 5% growth reduction applied within 3 days after seeding measured at 28 days after crop emergence. Conditions: in vivo.
Series [8] deals with Capsicum annuum. The series can be described thus: Toxicity against Capsicum annuum Socrates (pepper) assessed as dose required to cause 5% growth reduction applied within 3 days prior to transplantation measured at 28 days after crop transplanting. Conditions: in vivo, 672 h.
The test system of series [9] is Solanum lycopersicum. The series can be described thus: Toxicity against Solanum lycopersicum (tomato) H9909 assessed as dose required to cause 5% growth reduction applied within 3 days prior to transplantation measured at 28 days after crop transplanting. The following applies: in vivo, 672 h.
Series [10] has as its system Solanum tuberosum. Put plainly: Toxicity against Solanum tuberosum Superior (potato) assessed as reduction in plant dry weight at 100 g ai/ha preemergence application measured at 28 days after crop emergence. The arrangement: scale not given: the % may be the effect or the level left. The following applies: in vivo, other, 672 h.
Series [11] deals with Capsicum annuum. Put plainly: Toxicity against Capsicum annuum Socrates (pepper) assessed as reduction in plant dry weight at 100 g ai/ha pretransplant application measured at 28 days after crop transplanting. The arrangement: scale not given: the % may be the effect or the level left. Conditions: in vivo, other, 672 h.
Series [12] has as its system Solanum lycopersicum. Put plainly: Toxicity against Solanum lycopersicum (tomato) H9909 assessed as reduction in plant dry weight at 100 g ai/ha pretransplant application measured at 28 days after crop transplanting. The arrangement: scale not given: the % may be the effect or the level left. The following applies: in vivo, other, 672 h.
Series [13] relates to Solanum tuberosum. Put plainly: Toxicity against Solanum tuberosum Superior (potato) assessed as dose required to cause 5% visible injury applied within 3 days after seeding measured at 28 days after crop emergence. The following applies: in vivo, 672 h.
In series [14] the test system is Capsicum annuum. The series can be described thus: Toxicity against Capsicum annuum Socrates (pepper) assessed as dose required to cause 5% visible injury applied within 3 days prior to transplantation measured at 28 days after crop transplanting. The following applies: in vivo, 672 h.
In series [15] the test system is Solanum lycopersicum. The series can be described thus: Toxicity against Solanum lycopersicum (tomato) H9909 assessed as dose required to cause 5% visible injury applied within 3 days prior to transplantation measured at 28 days after crop transplanting. Conditions: in vivo, 672 h.
Series [16] has as its system Solanum tuberosum. Put plainly: Toxicity against Solanum tuberosum Superior (potato) assessed as decrease in crop injury at 100 g ai/ha preemergence application measured at 28 days after crop emergence. The arrangement: scale not given: the % may be the effect or the level left. Conditions: in vivo, other, 672 h.
Series [17] deals with Capsicum annuum. Put plainly: Toxicity against Capsicum annuum Socrates (pepper) assessed as decrease in crop injury at 100 g ai/ha pretransplant application measured at 28 days after crop transplanting. The following applies: in vivo, other, 672 h. The arrangement: scale not given: the % may be the effect or the level left.
Series [18] concerns Solanum lycopersicum. Put plainly: Toxicity against Solanum lycopersicum (tomato) H9909 assessed as decrease in crop injury at 100 g ai/ha pretransplant application measured at 28 days after crop transplanting. The arrangement: scale not given: the % may be the effect or the level left. Conditions: in vivo, other, 672 h.
In series [19] the test system is Capsicum annuum. The series can be described thus: Toxicity against Capsicum annuum (pepper) assessed as crop injury at 420 g ai/ha pretransplant application. Conditions: in vivo, other.

Structures are written as SMILES.

In the case of `CC(C)N(C)S(=O)(=O)NC(=O)c1cc(-n2c(=O)cc(C(F)(F)F)n(C)c2=O)c(F)cc1Cl` [SAFLUFENACIL], the Activity with Solanum tuberosum [1] turned out to be 19.7 gAi/ha; in the series with Capsicum annuum [2], 7 gAi/ha; in the series with Solanum lycopersicum [3], 8.8 gAi/ha; in the series with Solanum tuberosum [4], 18%; with Capsicum annuum [5] it was 69%; with Solanum lycopersicum [6], 57%. Further, the Activity in the series on Solanum tuberosum [7] stood at 15.5 gAi/ha; with Capsicum annuum [8], 5.6 gAi/ha; in the series on Solanum lycopersicum [9], 6.7 gAi/ha; in the series on Solanum tuberosum [10], 30%; in the series with Capsicum annuum [11], 82%; in the series with Solanum lycopersicum [12] it was 73%. In addition, the Activity was 105 gAi/ha in the series with Solanum tuberosum [13]; 15.4 gAi/ha in the series on Capsicum annuum [14]; 17.5 gAi/ha in the series with Solanum lycopersicum [15]; 5% in the series with Solanum tuberosum [16]; 32% in the series on Capsicum annuum [17]; 29% in the series on Solanum lycopersicum [18].

Regarding `Cc1nn(-c2cc(NS(C)(=O)=O)c(Cl)cc2Cl)c(=O)n1C(F)F` [SULFENTRAZONE], in the series with Capsicum annuum [19], the Activity amounted to 65%.
